Measured values reported in the NIST ThermoML archive (doi:10.1016/j.jct.2015.08.033).

Assay: mn = molality of the nth substance listed, in mol/kg
Conditions: 100 kPa, Liquid; for speed of sound: Frequency=3 MHz, Sing-around technique in a fixed-path interferometer; for mass density: Vibrating tube method

O=S(=O)([O-])C(F)(F)F.O=S(=O)([O-])C(F)(F)F.[Mg+2] [magnesium triflate] + CN(C)C=O
Conditions | mass density, 298.15 K [kg/m3] | mass density, 303.15 K [kg/m3] | mass density, 308.15 K [kg/m3] | mass density, 313.15 K [kg/m3] | mass density, 318.15 K [kg/m3] | speed of sound, 298.15 K [m/s] | speed of sound, 303.15 K [m/s] | speed of sound, 308.15 K [m/s] | speed of sound, 313.15 K [m/s] | speed of sound, 318.15 K [m/s]
m1 = 0.01036 | 946.019 | 941.245 | 936.47 | 931.673 | 926.87 | – | – | – | – | –
m1 = 0.01706 | 947.369 | 942.601 | 937.828 | 933.038 | 928.233 | 1457.4 | 1438.2 | 1418.9 | 1399.7 | 1380.5
m1 = 0.0217 | 948.297 | 943.537 | 938.762 | 933.973 | 929.172 | 1457.3 | 1438.2 | 1418.9 | 1399.8 | 1380.7
m1 = 0.03662 | 951.268 | 946.512 | 941.741 | 936.956 | 932.159 | 1457.3 | 1438.2 | 1419.1 | 1400 | 1380.9
m1 = 0.0512 | 954.144 | 949.392 | 944.627 | 939.848 | 935.055 | 1457.3 | 1438.2 | 1419.1 | 1400.1 | 1381.1
m1 = 0.06466 | 956.788 | 952.038 | 947.275 | 942.499 | 937.711 | 1457.2 | 1438.2 | 1419.1 | 1400.2 | 1381.2
m1 = 0.082 | 960.152 | 955.393 | 950.635 | 945.853 | 941.072 | 1457.1 | 1438.1 | 1419.1 | 1400.2 | 1381.3
m1 = 0.102 | 964.032 | 959.291 | 954.537 | 949.768 | 944.991 | 1456.9 | 1438 | 1419.1 | 1400.2 | 1381.5
m1 = 0.1234 | 968.107 | 963.366 | 958.615 | 953.853 | 949.079 | 1456.7 | 1437.9 | 1419 | 1400.3 | 1381.5
m1 = 0.1544 | 974.074 | 969.343 | 964.6 | 959.846 | 955.083 | 1456.4 | 1437.6 | 1418.9 | 1400.2 | 1381.6
